# Measurements as given in PMC12567347, “Angiotensin II/Angiotensin I Ratio as a New Pharmacodynamic Parameter for Population Modelling in Healthy Adults and Children with Heart Failure Treated with Enalapril” (Pharmaceutics, 2025).
# Columns and labels:
# ACE activity = tested on: ACE activity; design: method as in PMID 8512763; settings: eight infants with congestive heart failure, after four hours, single dose of 0.25 mg/kg enalapril maleate; cited from earlier work
# [1] = target: T1, angiotensin-converting enzyme (ACE) (Homo sapiens, UniProt P12821); assay: Percentage change in the angiotensin II/angiotensin I ratio four hours after the initial enalapril dose in children with heart failure; format: in vivo; settings: eight children with heart failure, four hours after first dose, median 0.06 mg/kg enalapril maleate
# T1 construct: from tissue; host or cells: in vivo in human subjects; ACE activity read indirectly from the plasma angiotensin II/angiotensin I ratio
# Method: In the pharmacokinetic bridging studies, a pharmacokinetic/pharmacodynamic profile was usually obtained in ACE inhibitor-naïve subjects at the initial dose visit, with pharmacokinetic samples collected before and 1, 2, 4, 6, and 12 h after enalapril orodispersible minitablet administration, as well as pharmacodynamic samples collected before and 4 h after administration. Alternatively, the pharmacokinetic/pharmacodynamic profile could also be obtained after reaching steady state at the optimal dose. In this case, the 12 h pharmacokinetic sample was omitted. Single pharmacokinetic and pharmacodynamic samples were collected in immediate succession during the remaining study visits. […]
# For the simultaneous determination of several angiotensin peptides, including angiotensin I and angiotensin II, a validated multiplex liquid chromatography high-resolution mass spectrometry method was applied. Following precipitation and solid-phase extraction, the samples were analyzed using a Nexera XR liquid chromatography system (Shimadzu, Duisburg, Germany) coupled to a TripleTOF® 6600 mass spectrometer from AB Sciex (Concord, ON, Canada). […]
# The percentage change in the angiotensin II/angiotensin I ratio was calculated in children with heart failure in whom an angiotensin II/angiotensin I ratio was available before the first dose of enalapril and four hours afterwards.
# [2] = Serum enalaprilat concentrations in children with heart failure treated with enalapril orodispersible minitablets; format: in vivo, human; settings: median first dose 0.06 mg/kg, median daily dose 0.11 mg/kg enalapril maleate
# Method: For the studies, a dosing regimen with age- and weight-dependent recommended titration doses, target doses, and maximum doses was developed using physiologically based pharmacokinetic simulation (Table S2). The appropriate dosage for each subject was selected based on the judgment of the investigator. Daily doses ≤ 0.25 mg were administered once daily in the morning, and daily doses > 0.25 mg were administered in two equal divided doses in the morning and evening. The required number of orodispersible minitablets with 0.25 mg enalapril maleate or 1 mg enalapril maleate (now approved as Aqumeldi®, Proveca Pharma Limited, Dublin, Ireland) was placed in the patient’s cheek pouch. The orodispersible minitablets rapidly disintegrated into small, easily swallowable particles. To facilitate swallowing, a fluid of the patient’s/parent’s choice (e.g., breast milk, formula milk, cow milk, water) could be administered.
# In the pharmacokinetic bridging studies, a pharmacokinetic/pharmacodynamic profile was usually obtained in ACE inhibitor-naïve subjects at the initial dose visit, with pharmacokinetic samples collected before and 1, 2, 4, 6, and 12 h after enalapril orodispersible minitablet administration, as well as pharmacodynamic samples collected before and 4 h after administration. […]
# [3] = design: method as in PMID 26256099; settings: parameters estimated in children extrapolated to an adult weight of 70 kg; cited from earlier work
# T1 sequence (P12821 30-1306): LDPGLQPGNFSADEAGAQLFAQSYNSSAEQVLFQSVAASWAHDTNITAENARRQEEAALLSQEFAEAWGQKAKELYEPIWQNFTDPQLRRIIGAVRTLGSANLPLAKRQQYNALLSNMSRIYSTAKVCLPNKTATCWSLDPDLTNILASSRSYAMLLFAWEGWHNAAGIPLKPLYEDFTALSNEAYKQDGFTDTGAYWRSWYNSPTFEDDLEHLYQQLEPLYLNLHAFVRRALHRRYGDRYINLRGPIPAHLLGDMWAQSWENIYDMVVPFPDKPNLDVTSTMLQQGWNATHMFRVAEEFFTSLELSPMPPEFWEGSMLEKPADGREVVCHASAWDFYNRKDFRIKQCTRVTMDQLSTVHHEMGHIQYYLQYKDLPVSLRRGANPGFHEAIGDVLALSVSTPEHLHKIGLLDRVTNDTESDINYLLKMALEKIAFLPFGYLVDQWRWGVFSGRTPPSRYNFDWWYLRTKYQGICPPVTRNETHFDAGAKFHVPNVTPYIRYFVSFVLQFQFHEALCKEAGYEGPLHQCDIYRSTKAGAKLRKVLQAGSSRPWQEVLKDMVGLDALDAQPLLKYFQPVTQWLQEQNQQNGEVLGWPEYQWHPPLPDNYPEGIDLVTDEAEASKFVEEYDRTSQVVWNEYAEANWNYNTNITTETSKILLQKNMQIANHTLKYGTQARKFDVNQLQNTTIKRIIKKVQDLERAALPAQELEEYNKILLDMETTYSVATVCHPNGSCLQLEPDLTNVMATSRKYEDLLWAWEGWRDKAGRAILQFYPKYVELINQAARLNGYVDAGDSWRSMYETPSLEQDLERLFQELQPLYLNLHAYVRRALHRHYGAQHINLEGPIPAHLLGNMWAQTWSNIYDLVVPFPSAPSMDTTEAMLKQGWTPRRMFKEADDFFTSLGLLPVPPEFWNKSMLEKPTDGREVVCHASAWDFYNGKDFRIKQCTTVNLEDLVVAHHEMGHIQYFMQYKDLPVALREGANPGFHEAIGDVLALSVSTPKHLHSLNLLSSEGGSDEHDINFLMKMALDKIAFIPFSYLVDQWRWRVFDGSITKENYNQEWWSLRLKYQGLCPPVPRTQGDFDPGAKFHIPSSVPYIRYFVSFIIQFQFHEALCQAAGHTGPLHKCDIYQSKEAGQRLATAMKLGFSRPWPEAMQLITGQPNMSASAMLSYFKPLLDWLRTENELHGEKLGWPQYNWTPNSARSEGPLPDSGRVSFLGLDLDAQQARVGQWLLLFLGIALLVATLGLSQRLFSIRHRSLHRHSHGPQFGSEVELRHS
SMILES,mean inhibition of ACE activity (ACE activity),"decrease in angiotensin II/angiotensin I ratio, median [1]","decrease in angiotensin II/angiotensin I ratio, range [1]",highest measured enalaprilat concentration [2],apparent central volume of distribution of enalaprilat [3],apparent clearance of enalaprilat [3]
CCOC(=O)[C@H](CCc1ccccc1)N[C@@H](C)C(=O)N1CCC[C@H]1C(=O)O [enalapril],75.5%,79.3%,21.4–92.7%,–,–,–
C[C@H](N[C@@H](CCc1ccccc1)C(=O)O)C(=O)N1CCC[C@H]1C(=O)O [enalaprilat],–,–,–,18.3 µg/L,168.8 L,18.2 L/h
